Source: US20250017215A1, “LIQUID CARRIER CONCENTRATE COMPRISING AT LEAST ONE BENEFICIAL MICROORGANISM AND USES THEREOF” (priority 2021, published 2025)

Legend:
Beauveria bassiana = experiment: Microbial viability of liquid carrier concentrates upon accelerated storage stability study (shelf-life), colony counting; format: cell-based; settings: storage at 25° C. without agitation
Experimental: (§1) Standard procedure for microbial viability assessment of liquid carrier concentrates upon accelerated storage stability study (Shelf-life assessment) In order to evaluate the shelf-life of liquid carrier concentrate of the fungi, the liquid carrier concentrates were prepared by mixing 5 wt % of a commercial product (biopesticide) containing a beneficial microorganism and 95 wt % of the solvent to be tested.
(§2) The commercial products tested were in powder form, and the beneficial microorganisms in the composition were: • Beauveria bassiana, • Paecilomyces lilacinus.
(§3) For comparison, a control experiment without the solvent was prepared. For Beauveria bassiana and Paecilomyces lilacinus, 5 wt % of the powder commercial product was added to 95 wt % soybean oil, 2-ethylhexyl lactate or isoamyl laurate.
(§4) The preparations were incubated under accelerated temperature test conditions, at 25° C. and the viability of the microorganism was evaluated after 0, 15 days, 1 month, 3 months, 6 months, 9 months, 12 months and 14 months of incubation without agitation. Trials were performed in duplicates.
(§5) To confirm that the microorganisms were viable after determined incubation/storage time, traditional serial dilution and plating of the samples for colony counting were performed.
(§6) For fungi evaluation, samples of 0.1 mL were taken from each preparation and added to 0.9 mL of an aqueous solution containing 0.1% of Tween 80 (polyoxyethylene sorbitan monooleate) to obtain a 10^−1 dilution. Then 0.1 mL of this dilution was added to 0.9 mL of the same aqueous solution successively until the most appropriate dilution was obtained (usually between 10-4 and 10-7). 0.2 mL of the most appropriate dilutions were spread into petri dishes containing the proper culture media for each microorganism and incubated (at 25° C. for Beauveria bassiana and Paecilomyces lilacinus), until the colony grew.
(§7) The number of the colonies on each petri dish was counted and the results are expressed by colony forming units (CFU)/mL.
(§8) Shelf-life assessment was done on two different fungi (Beauveria bassiana and Paecilomyces lilacinus) in Augeo SL191 solvent (formula (I), with R1, R2: methyl, and R3: H) and in three other benchmark solvents or oils according to the experimental procedures described above. For each microorganism, isoamyl laurate was tested in a different run series which explains the difference between its initial microorganism concentration (CFU/mL) and the one of the other three solvents. The recurrent colony counting was done at different incubation times: t=0, 15 days, 1 month, then every month until the CFU/mL value of a sample drops by two log 10 scale (>100 times), i.e. a reduction of 99%.

Paecilomyces lilacinus = experiment: as above; format: cell-based; settings: storage at 25° C. without agitation
Experimental: as §1, §2, §3, §4, §5, §6, §7, §8

Row | SMILES | Viability after 14 months (Beauveria bassiana; 14 months) | Viability after 14 months (Paecilomyces lilacinus; 14 months) | Viability after 1 month (Beauveria bassiana; 1 month) | Viability after 1 month (Paecilomyces lilacinus; 1 month)
1 | CC1(C)OCC(CO)O1 (stereo not shown) [Augeo SL191, Solketal] | above 1E+06 CFU/mL | above 1E+06 CFU/mL |  | 
2 | CCCCC(CC)COC(=O)C(C)O (stereo not shown) [2-ethyl hexyl lactate, 2-ethylhexyl lactate] |  |  | less than 1E+05 CFU/mL | less than 1E+05 CFU/mL
